# Measurements taken from publication PMC5438364, “A broad-spectrum bactericidal lipopeptide with anti-biofilm properties” (Scientific Reports, 2017).
# Where a SMILES comes first, the peptide text is derived from it. [ ]: non-standard residue; d: D form. The star is where a group is joined. Myristoyl = CCCCCCCCCCCCCC(=O)*; 12Ado = NCCCCCCCCCCCC(=O)O
# System: Klebsiella
# Type: cell-based
# Source text: Gram-negative bacteria tested were: ATCC strains Escherichia coli 25922, 43894, Pseudomonas aeruginosa 27853, 9027, Acinetobacter baumannii 19606, A. caloaceticus 31299, Salmonella Typhimurium 14028, Fusobacterium nucleatum 23726, Porphyromonas gingivalis 53977, clinical isolates E. coli 14182, 14384, U-16327, U-16329, P. aeruginosa 1278, Klebsiella pneumoniae 1287, K2–224, C2, A. baumannii 1279, 1280, 1281, F. nucleatum PK 1594, the engineered E. coli ML-35p and the isogenic K-12 pair AG100, AG100a (ΔacrAB). Dental related bacteria (generous gift of Prof. Doron Steinberg and Gilad Bachrach from the Hebrew University of Jerusalem) appear in bold characters.
# Staphylococci, Bacilli, Escherichia, Pseudomonas, Acinetobacter, Salmonella and Klebsiella species were grown in Luria Bertani broth (LB; 5 gr/l NaCl, 5 gr/l yeast extract, 10 gr/l tryptone). Enterococci and E. coli ML-35p were grown in Tryptic Soy Broth (TSB). Listeria and Streptococci were grown in Brain Heart Infusion (BHI). All bacteria were grown over-night at 37 °C with shaking. S. mutans 35668 plated on BHI agar for enumeration was grown for 48 hr. S. mutans UA159 was grown in 5% CO2 enriched atmosphere. Fusobacterium and Porphyromonas were grown in Wilkins-Chalgren growth medium and an anaerobic atmosphere.
# Minimal inhibitory concentration (MIC) was determined using the microdilution assay. Mid-log-phase bacteria at 5 × 10^5 CFU/ml were incubated in a 96-well plate with serial two-fold dilutions of the tested compound for 18–24 hr at 37 °C (final volume of 200 µl). O.D. at 620 nm was measured (Synergy HT, BioTek Instruments, Winooski, VT, USA), and the MIC was determined as the lowest concentration for which no increase in O.D. was detected.
structure (smiles),measurement,value
CCCCCCCCCCCCCC(=O)N[C@@H](CCCCN)C(=O)N[C@@H](CCCCN)C(=O)NCCCCCCCCCCCC(=O)N[C@@H](CCCCN)C(N)=O [C14KKc12K] (Myristoyl-KK[12Ado]K-NH2),MIC range,3.12 to 12.5 µM
